Measurements reported in patent publication US6413974B1, “6,9,-disubstituted 2-[trans-(4-aminocyclohexyl) amino] purines” (Aventis Pharmaceuticals Inc., priority 1998, dated 2002).
Values joined by “and” are separate entries in the source; they are usually repeats but may differ in a detail not shown here. Equal entries are not always repeated. Structures can show the parent of a compound that is named as a salt. Where two headings read alike, the source gives them in different places.

Key:
[1] = system: MDA-MB-231; assay: In vitro tumor cell proliferation, MDA-MB-231; format: cell-based, human; conditions: read-out: In vitro Tumor Cell Proliferation (IC50, μM) Breast MDA-MB-231
Summary of the method: (§1)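 SRB read-out: 3-day drug exposure, medium and drug renewed, 4 further days, TCA fixation at 4° C, 0.4% SRB stain. CyQUANT alternative: 3-day drug exposure, then plates frozen at −80° C ≥30 min. Cells plated overnight at 37° C before dosing.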

[2] = system: HCT-15; assay: In vitro tumor cell proliferation, HCT-15; format: cell-based, human; conditions: read-out: In vitro Tumor Cell Proliferation (IC50, μM) Colon HCT-15
Protocol: (§2) The proliferation of tumor cells was measured using a sulforhodamine B assay as described in Skehan, P., et al., J. Natl. Cancer Inst. […] Tumor cells were harvested with trypsin-EDTA, cells that excluded trypan blue were counted, added to 96-well plates and incubated overnight at 37° C. Drug was added to the wells following dilution in culture medium. Three days later, the medium was removed and replenished with medium containing fresh drug and incubated an additional 4 days. The cells were then fixed with 0.1 ml 10% trichloroacetic acid for 60 min at 4° C. The plates were rinsed five times with tap water, air-dried and stained for 30 min with 0.4% sulforhodamine B in 1% acetic acid and air-dried.
(§3) Alternatively, the CyQUANT cell proliferation assay was used to quantify tumor cell proliferation. Tumor cells were harvested with trypsin-EDTA, cells that excluded trypan blue were counted, added to 96-well plates and incubated overnight at 37° C. Drug was added to the wells following dilution in culture medium. Three days later the medium was removed and the plates frozen at −80° C. for at least 30 minutes.

[3] = target: T1, cdk2/cyclin E (Homo sapiens, UniProt P24941); assay: Cyclin-Dependent Kinase 2 Assay (cdk-2 inhibition); format: biochemical; conditions: GST-Rb substrate, 30 min at 30° C.
T1 construct: made in house; host or cells: insect cells (baculovirus co-infection)
Summary of the method: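 GST-Rb bound to glutathione-Sepharose beads (0.5 μg/well) as substrate in 50 mM HEPES pH 7.5, 10 mM MgCl2, 1 mM EGTA. Recombinant cdk2/cyclin E at 0.1 μg per 100 μl, 30 min at 30 °C. Reaction stopped by filtration, TNEN washes, scintillation counting.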

[4] = system: HT-29; assay: In vitro tumor cell proliferation, HT-29; format: cell-based, human; conditions: read-out: In vitro Tumor Cell Proliferation (IC50, μM) Colon HT-29 (converted)
Summary of the method: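 HT-29 human colon adenocarcinoma cells plated overnight at 37° C., then exposed to drug for 3 days, medium with fresh drug replaced for a further 4 days. Cells fixed with 10% TCA and stained with 0.4% sulforhodamine B; alternatively, CyQUANT read after 3 days of drug exposure.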

[5] = system: DMS-114; assay: In vitro tumor cell proliferation, DMS-114; format: cell-based, human; conditions: read-out: In vitro Tumor Cell Proliferation (IC50, μM) Lung DMS-114
Summary of the method: as §1

[6] = target: T2, cdk4/cyclin D1 (Homo sapiens, UniProt P11802); assay: Cyclin-dependent kinase 4 Assay; format: biochemical; conditions: cdk4/cyclin D1, GST-Rb substrate, 10 μM ATP, 30 min at 37° C.; read-out: CDK4 Inhibition IC50
T2 construct: made in house; host or cells: Sf9 insect cells (Bac-to-Bac baculovirus, pFastBac)
Summary of the method: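 Insect-cell lysate of coexpressed human cdk4/cyclin D1 (0.1 μg) phosphorylated bead-bound GST-Rb (0.5 μg) in 50 mM HEPES pH 7.5, 10 mM MgCl2, 1 mM EGTA for 30 min at 37 °C. Filters were washed with TNEN and scintillation-counted; IC50 values derived.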

[7] = system: PC-3; assay: In vitro tumor cell proliferation, PC-3; format: cell-based, human; conditions: read-out: In vitro Tumor Cell Proliferation (IC50, μM) Prostate PC-3
Summary of the method: as §1

[8] = system: MCF-7; assay: In vitro tumor cell proliferation, MCF-7; format: cell-based, human; conditions: read-out: In vitro Tumor Cell Proliferation (IC50, μM) Breast MCF-7
Protocol: as §2, §3
MCF7 is a human breast adenocarcinoma, hormone-dependent (HTB 22);

[9] = system: DU 145; assay: In vitro tumor cell proliferation, DU 145; format: cell-based, human; conditions: read-out: In vitro Tumor Cell Proliferation (IC50, μM) Prostate DUI45
Summary of the method: as §1

[10] = system: A549; assay: In vitro tumor cell proliferation, A549; format: cell-based, human; conditions: read-out: In vitro Tumor Cell Proliferation (IC50, μM) Lung A549
Summary of the method: as §1

[11] = Homo sapiens, MDA-MB-231, values without *
[12] = values without *, trihydrochloride
[13] = Homo sapiens, HCT-15, values without *
[14] = Homo sapiens, HT-29, values without *
[15] = Homo sapiens, DMS-114, values without *
[16] = Homo sapiens, PC-3, values without *
[17] = Homo sapiens, MCF7, values without *
[18] = Homo sapiens, DU-145, values without *
[19] = Homo sapiens, A549, values without *
[20] = values without *, dihydrochloride

T2 sequence (P11802 whole entry): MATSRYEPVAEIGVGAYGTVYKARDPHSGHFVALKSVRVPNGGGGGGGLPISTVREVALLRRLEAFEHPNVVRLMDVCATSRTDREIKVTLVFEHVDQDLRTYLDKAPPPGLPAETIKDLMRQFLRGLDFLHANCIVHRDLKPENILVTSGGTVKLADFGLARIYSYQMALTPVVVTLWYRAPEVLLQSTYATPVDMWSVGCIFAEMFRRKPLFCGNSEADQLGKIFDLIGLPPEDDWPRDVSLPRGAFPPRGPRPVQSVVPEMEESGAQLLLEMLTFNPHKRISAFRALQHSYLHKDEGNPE
T2 sequence (P24385 whole entry partner): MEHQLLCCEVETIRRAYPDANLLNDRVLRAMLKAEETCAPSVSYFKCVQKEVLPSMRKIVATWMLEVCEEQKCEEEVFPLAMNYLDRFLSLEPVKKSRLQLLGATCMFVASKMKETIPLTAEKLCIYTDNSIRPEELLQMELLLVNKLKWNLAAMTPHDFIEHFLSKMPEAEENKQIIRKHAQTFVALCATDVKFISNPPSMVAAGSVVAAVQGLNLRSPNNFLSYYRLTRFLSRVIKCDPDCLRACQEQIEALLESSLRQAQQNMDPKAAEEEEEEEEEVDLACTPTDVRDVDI

SMILES | IC50 [1, 11] | IC50 [2, 13] | IC50 [3] | IC50 [4, 14] | IC50 [5, 15] | IC50 [6] | IC50 [7, 16] | IC50 [8, 17] | IC50 [9, 18] | IC50 [10, 19] | IC50 [1, 20] | IC50 [2, 20] | IC50 [4, 20] | IC50 [5, 20] | IC50 [7, 20] | IC50 [8, 20] | IC50 [9, 20] | IC50 [10, 20] | also measured
CC(C)n1cnc2c(NCc3ccccc3)nc(N[C@H]3CC[C@H](N)CC3)nc21 [Example 45, 2-[Trans-(4-aminocyclohexyl)amino]-6-(benzylamino)-9-(2-propyl)purine trihydrochloride] | 4 µM | 16 µM | 0.18 µM | 4.8 µM | 2.1 µM | 12 µM | 2.4 µM | 1.6 µM | 2.5 µM | 2 µM |  |  |  |  |  |  |  |  | IC50 [1, 12]: 3 µM; IC50 [2, 12]: 17 µM; IC50 [4, 12]: 3.5 µM; IC50 [5, 12]: 1.6 µM; IC50 [7, 12]: 1.4 µM; IC50 [8, 12]: 1.7 µM; IC50 [9, 12]: 1.9 µM; IC50 [10, 12]: 1.8 µM
N[C@H]1CC[C@H](Nc2nc(NCCc3ccccc3)c3ncn(C4CCCC4)c3n2)CC1 [Example 43, 2-[Trans-(4-aminocyclohexyl)amino-6-[2-(phenyl)ethylamino]-9-cyclopentylpurinedihydrochloride] | 2.1 µM | 3.4 µM | 0.16 µM | 2.2 µM | 0.92 µM | 0.25 µM | 0.89 µM | 1.2 µM | 1.2 µM | 1.1 µM | 2.5 µM | 3.2 µM | 2.8 µM | 1.2 µM | 0.92 µM | 1.6 µM | 1.4 µM | 1 µM | 
N[C@H]1CC[C@H](Nc2nc(NCC3CCCCO3)c3ncn(C4CCCC4)c3n2)CC1 (relative stereo) [Example 30, 2-[Trans-(4-aminocyclohexyl)amino]-6-[(2-tetrahydropyranyl)methylamino]-9-cyclopentylpurine dihydrochloride] | 6.4 µM | 21 µM | 0.126 µM | 5.3 µM | 2.9 µM | 0.6 µM | 1.9 µM | 2.5 µM | 3.3 µM | 2.5 µM | 8.6 µM | 22 µM | 7.9 µM | 3.7 µM | 2.3 µM | 3.1 µM | 4 µM | 3.1 µM | 
N[C@H]1CC[C@H](Nc2nc(NCCCn3ccnc3)c3ncn(C4CCCC4)c3n2)CC1 [Example 46, 2-[Trans-(4-aminocyclohexyl)amino]-6-[3-(1-imidazolyl)propylamino]-9-cyclopentylpurine dihydrochloride] | 5.2 µM |  | 0.02 µM and 0.017 µM and 0.021 µM | 6.2 µM | 5.4 µM | 0.45 µM | 2 µM | 3.5 µM | 5.1 µM | 6 µM | 7 µM | 16 µM | 9.7 µM | 7.4 µM | 3 µM | 4.9 µM | 6 µM | 6.7 µM | 
CCCCNc1nc(N[C@H]2CC[C@H](N)CC2)nc2c1ncn2C1CCCC1 [Example 3, 2-[Trans-(4-aminocylcohexyl)amino]-6-(butylamino)-9-cyclopentylpurine dihydrochloride] | 0.95 µM | 3.9 µM | 0.033 µM and 0.017 µM | 0.92 µM | 0.49 µM | 0.39 µM and 0.66 µM | 0.37 µM | 0.59 µM | 0.54 µM | 0.6 µM | 1.2 µM | 3.6 µM | 1.5 µM | 0.73 µM |  | 0.81 µM | 0.6 µM | 0.63 µM | 
N[C@H]1CC[C@H](Nc2nc(NCCCc3ccccc3)c3ncn(C4CCCC4)c3n2)CC1 [Example 24, 2-[Trans-(4-aminocyclohexyl)amino]-6-[3-(phenyl)propylamino]-9-cyclopentylpurine dihydrochloride] |  | 1.4 µM | 0.13 µM | 0.16 µM | 0.14 µM | 0.57 µM and 0.9 µM | 0.13 µM | 0.34 µM | 0.39 µM | 0.15 µM |  | 1 µM | 0.17 µM and 0.28 µM | 0.13 µM | 0.23 µM | 0.47 µM | 0.38 µM and 0.51 µM |  | IC50 ([1]; Homo sapiens, MDA-MB-231, values marked * (mark not explained)): 0.24 µM; IC50 ([2]; Homo sapiens, HCT-15, values marked * (mark not explained)): 0.99 µM; IC50 ([4]; Homo sapiens, HT-29, values marked * (mark not explained)): 0.19 µM; IC50 ([5]; Homo sapiens, DMS-114, values marked * (mark not explained)): 0.07 µM; IC50 ([7]; Homo sapiens, PC-3, values marked * (mark not explained)): 0.2 µM; IC50 ([8]; Homo sapiens, MCF7, values marked * (mark not explained)): 0.42 µM; IC50 ([9]; Homo sapiens, DU-145, values marked * (mark not explained)): 0.54 µM; IC50 ([10]; Homo sapiens, A549, values marked * (mark not explained)): 0.11 µM
CC(C)CCNc1nc(N[C@H]2CC[C@H](N)CC2)nc2c1ncn2C1CCCC1 [Example 36, 2-[Trans-(4-aminocyclohexyl)amino]-6-[(3-methylbutyl)amino]-9-cyclopentylpurine dihydrochloride] | 1.4 µM | 3.1 µM | 0.12 µM | 1.5 µM | 0.88 µM | 1.1 µM and 0.6 µM | 0.68 µM | 1.1 µM | 0.89 µM | 0.8 µM | 2 µM | 3.3 µM | 1.9 µM | 0.91 µM |  | 1.3 µM | 1.1 µM | 0.94 µM | 
